Species on record: Rattus norvegicus
Assay: Open TG-GATES - Regimen: Daily Repeat
Format: toxicity, organism-based, Sprague-Dawley
Design: regimen Daily Repeat, gender Male, age 6 weeks
Conditions: in vivo, po, route gavage; for APTT / Bas / Eos / Fbg / Hb / Ht / Lym / MCH / MCHC / MCV / Mono / Neu / PT / Plat / RBC / Ret / WBC: tissue Blood; for KIDNEY_L / KIDNEY_R / KIDNEY_TOTAL: tissue Kidney; for LIVER: tissue Liver; for ALP / ALT / AST / BUN / CRE / DBIL / GLC / K / Na / PL / RALB / TBIL / TC / TG / TP / gamma-GTP: tissue Plasma
[1] = 0 mg/kg, 72 h, dose level Control, time 3 day
[2] = 0 mg/kg, […], dose level Control, time 7 day
[3] = 0 mg/kg, […], dose level Control, time 14 day
[4] = 0 mg/kg, […], dose level Control, time 28 day
[5] = 25 mg/kg, 72 h, dose level Low, time 3 day
[6] = 25 mg/kg, […], dose level Low, time 7 day
[7] = 25 mg/kg, […], dose level Low, time 14 day
[8] = 25 mg/kg, […], dose level Low, time 28 day

SMILES: CN1C(=O)CN=C(c2ccccc2)c2cc(Cl)ccc21 [DIAZEPAM]
- TERMINAL_BW [1]: 246.7 g
- APTT [1]: 16.3 s
- Bas [1]: 0%
- Eos [1]: 1.2%
- Fbg [1]: 235.6 mg/dL
- Hb [1]: 13.5 g/dL
- Ht [1]: 40.6%
- Lym [1]: 78.6%
- MCH [1]: 21.4 pg
- MCHC [1]: 33.2%
- MCV [1]: 64.4 fL
- Mono [1]: 6.4%
- Neu [1]: 14.2%
- PT [1]: 12 s
- Plat [1]: 114.2 x10_4/uL
- RBC [1]: 630.6 x10_4/ul
- Ret [1]: 6.6%
- WBC [1]: 104 x10_2/uL
- KIDNEY_L [1]: 1.1 g
- KIDNEY_R [1]: 1.1 g
- KIDNEY_TOTAL [1]: 2.2 g
- LIVER [1]: 12.5 g
- ALP [1]: 817.2 IU/L
- ALT [1]: 34.2 IU/L
- AST [1]: 59.4 IU/L
- BUN [1]: 17.2 mg/dL
- CRE [1]: 0.5 mg/dL
- DBIL [1]: 0.006 mg/dL
- GLC [1]: 198.8 mg/dL
- K [1]: 5 meq/L
- Na [1]: 138.9 meq/L
- PL [1]: 154 mg/dL
- RALB [1]: 4 g/dL
- TBIL [1]: 0.3 mg/dL
- TC [1]: 78.4 mg/dL
- TG [1]: 115.4 mg/dL
- TP [1]: 6 g/dL
- gamma-GTP [1]: 1.6 IU/L
- TERMINAL_BW [2]: 289.2 g
- TERMINAL_BW [3]: 333.2 g
- TERMINAL_BW [4]: 416.1 g
- APTT [2]: 16 s
- Bas [2]: 0%
- Eos [2]: 1%
- Fbg [2]: 237.8 mg/dL
- Hb [2]: 14.2 g/dL
- Ht [2]: 42.8%
- Lym [2]: 79.2%
- MCH [2]: 21.8 pg
- MCHC [2]: 33.2%
- MCV [2]: 65.6 fL
- Mono [2]: 9.4%
- Neu [2]: 11%
- PT [2]: 11.4 s
- Plat [2]: 106.5 x10_4/uL
- RBC [2]: 653.4 x10_4/ul
- Ret [2]: 6.3%
- WBC [2]: 120.8 x10_2/uL
- APTT [3]: 16.4 s
- Bas [3]: 0%
- Eos [3]: 0.6%
- Fbg [3]: 234 mg/dL
- Hb [3]: 15.2 g/dL
- Ht [3]: 45.6%
- Lym [3]: 80.6%
- MCH [3]: 20.9 pg
- MCHC [3]: 33.3%
- MCV [3]: 62.9 fL
- Mono [3]: 3.6%
- Neu [3]: 14.8%
- PT [3]: 12 s
- Plat [3]: 92.8 x10_4/uL
- RBC [3]: 725.4 x10_4/ul
- Ret [3]: 4.5%
- WBC [3]: 149.8 x10_2/uL
- APTT [4]: 17 s
- Bas [4]: 0%
- Eos [4]: 1.2%
- Fbg [4]: 227.2 mg/dL
- Hb [4]: 15.8 g/dL
- Ht [4]: 47.5%
- Lym [4]: 83.6%
- MCH [4]: 19 pg
- MCHC [4]: 33.3%
- MCV [4]: 57 fL
- Mono [4]: 6.4%
- Neu [4]: 9%
- PT [4]: 12.3 s
- Plat [4]: 102.6 x10_4/uL
- RBC [4]: 833 x10_4/ul
- Ret [4]: 2.2%
- WBC [4]: 146.4 x10_2/uL
- KIDNEY_L [2]: 1.2 g
- KIDNEY_R [2]: 1.3 g
- KIDNEY_TOTAL [2]: 2.5 g
- KIDNEY_L [3]: 1.3 g
- KIDNEY_R [3]: 1.3 g
- KIDNEY_TOTAL [3]: 2.7 g
- KIDNEY_L [4]: 1.4 g
- KIDNEY_R [4]: 1.5 g
- KIDNEY_TOTAL [4]: 2.9 g
- LIVER [2]: 14.8 g
- LIVER [3]: 14.8 g
- LIVER [4]: 17.1 g
- ALP [2]: 843.2 IU/L
- ALT [2]: 37.2 IU/L
- AST [2]: 60.4 IU/L
- BUN [2]: 17.8 mg/dL
- CRE [2]: 0.5 mg/dL
- DBIL [2]: 0.02 mg/dL
- GLC [2]: 188.8 mg/dL
- K [2]: 5.1 meq/L
- Na [2]: 137.6 meq/L
- PL [2]: 184.8 mg/dL
- RALB [2]: 4.2 g/dL
- TBIL [2]: 0.3 mg/dL
- TC [2]: 92.8 mg/dL
- TG [2]: 164.6 mg/dL
- TP [2]: 6.4 g/dL
- gamma-GTP [2]: 1.6 IU/L
- ALP [3]: 714 IU/L
- ALT [3]: 37.4 IU/L
- AST [3]: 68.2 IU/L
- BUN [3]: 19.4 mg/dL
- CRE [3]: 0.6 mg/dL
- DBIL [3]: 0.01 mg/dL
- GLC [3]: 183.2 mg/dL
- K [3]: 4.6 meq/L
- Na [3]: 141.1 meq/L
- PL [3]: 149.2 mg/dL
- RALB [3]: 4 g/dL
- TBIL [3]: 0.3 mg/dL
- TC [3]: 72 mg/dL
- TG [3]: 131.8 mg/dL
- TP [3]: 6.4 g/dL
- gamma-GTP [3]: 1 IU/L
- ALP [4]: 591.2 IU/L
- ALT [4]: 28.4 IU/L
- AST [4]: 54.2 IU/L
- BUN [4]: 19.8 mg/dL
- CRE [4]: 0.7 mg/dL
- DBIL [4]: 0.002 mg/dL
- GLC [4]: 182.8 mg/dL
- K [4]: 4.5 meq/L
- Na [4]: 139.4 meq/L
- PL [4]: 147.8 mg/dL
- RALB [4]: 4.1 g/dL
- TBIL [4]: 0.2 mg/dL
- TC [4]: 67.2 mg/dL
- TG [4]: 165.6 mg/dL
- TP [4]: 6.6 g/dL
- gamma-GTP [4]: 1.2 IU/L
- TERMINAL_BW [5]: 248 g
- APTT [5]: 16.5 s
- Bas [5]: 0%
- Eos [5]: 1%
- Fbg [5]: 230 mg/dL
- Hb [5]: 13.9 g/dL
- Ht [5]: 42%
- Lym [5]: 84%
- MCH [5]: 21.5 pg
- MCHC [5]: 33.2%
- MCV [5]: 64.8 fL
- Mono [5]: 3.8%
- Neu [5]: 11.2%
- PT [5]: 12 s
- Plat [5]: 100.7 x10_4/uL
- RBC [5]: 647.8 x10_4/ul
- Ret [5]: 6.3%
- WBC [5]: 155.1 x10_2/uL
- KIDNEY_L [5]: 1.1 g
- KIDNEY_R [5]: 1.1 g
- KIDNEY_TOTAL [5]: 2.1 g
- LIVER [5]: 12 g
- ALP [5]: 908.6 IU/L
- ALT [5]: 37.4 IU/L
- AST [5]: 63.4 IU/L
- BUN [5]: 16.8 mg/dL
- CRE [5]: 0.6 mg/dL
- DBIL [5]: 0.016 mg/dL
- GLC [5]: 193.2 mg/dL
- K [5]: 4.7 meq/L
- Na [5]: 139.3 meq/L
- PL [5]: 150.4 mg/dL
- RALB [5]: 4.1 g/dL
- TBIL [5]: 0.3 mg/dL
- TC [5]: 81.4 mg/dL
- TG [5]: 76.4 mg/dL
- TP [5]: 6 g/dL
- gamma-GTP [5]: 1 IU/L
- TERMINAL_BW [6]: 279.2 g
- TERMINAL_BW [7]: 331.4 g
- TERMINAL_BW [8]: 411.1 g
- APTT [6]: 16.6 s
- Bas [6]: 0%
- Eos [6]: 0.8%
- Fbg [6]: 223 mg/dL
- Hb [6]: 14.2 g/dL
- Ht [6]: 42.5%
- Lym [6]: 79.6%
- MCH [6]: 20.8 pg
- MCHC [6]: 33.4%
- MCV [6]: 62.3 fL
- Mono [6]: 3.8%
- Neu [6]: 16.2%
- PT [6]: 11.4 s
- Plat [6]: 116.1 x10_4/uL
- RBC [6]: 681.6 x10_4/ul
- Ret [6]: 5.7%
- WBC [6]: 115.6 x10_2/uL
- APTT [7]: 16.6 s
- Bas [7]: 0%
- Eos [7]: 0.8%
- Fbg [7]: 225.8 mg/dL
- Hb [7]: 14.8 g/dL
- Ht [7]: 44.6%
- Lym [7]: 83.2%
- MCH [7]: 20.1 pg
- MCHC [7]: 33.3%
- MCV [7]: 60.3 fL
- Mono [7]: 5.6%
- Neu [7]: 10.6%
- PT [7]: 12 s
- Plat [7]: 110.6 x10_4/uL
- RBC [7]: 740 x10_4/ul
- Ret [7]: 4.1%
- WBC [7]: 120.7 x10_2/uL
- APTT [8]: 18 s
- Bas [8]: 0%
- Eos [8]: 0.6%
- Fbg [8]: 223.8 mg/dL
- Hb [8]: 15.8 g/dL
- Ht [8]: 47.2%
- Lym [8]: 83.4%
- MCH [8]: 19.3 pg
- MCHC [8]: 33.4%
- MCV [8]: 57.7 fL
- Mono [8]: 3.6%
- Neu [8]: 12%
- PT [8]: 12.1 s
- Plat [8]: 102.8 x10_4/uL
- RBC [8]: 818.6 x10_4/ul
- Ret [8]: 2.7%
- WBC [8]: 154.6 x10_2/uL
- KIDNEY_L [6]: 1.2 g
- KIDNEY_R [6]: 1.2 g
- KIDNEY_TOTAL [6]: 2.4 g
- KIDNEY_L [7]: 1.3 g
- KIDNEY_R [7]: 1.3 g
- KIDNEY_TOTAL [7]: 2.6 g
- KIDNEY_L [8]: 1.4 g
- KIDNEY_R [8]: 1.4 g
- KIDNEY_TOTAL [8]: 2.8 g
- LIVER [6]: 14.1 g
- LIVER [7]: 14.8 g
- LIVER [8]: 16.9 g
- ALP [6]: 886.2 IU/L
- ALT [6]: 33.6 IU/L
- AST [6]: 62 IU/L
- BUN [6]: 18.8 mg/dL
- CRE [6]: 0.5 mg/dL
- DBIL [6]: 0.024 mg/dL
- GLC [6]: 188.2 mg/dL
- K [6]: 4.9 meq/L
- Na [6]: 137.7 meq/L
- PL [6]: 170.4 mg/dL
- RALB [6]: 4.1 g/dL
- TBIL [6]: 0.3 mg/dL
- TC [6]: 77.8 mg/dL
- TG [6]: 168.6 mg/dL
- TP [6]: 6.1 g/dL
- gamma-GTP [6]: 1.2 IU/L
- ALP [7]: 848.8 IU/L
- ALT [7]: 34.4 IU/L
- AST [7]: 64.4 IU/L
- BUN [7]: 18.4 mg/dL
- CRE [7]: 0.6 mg/dL
- DBIL [7]: 0.002 mg/dL
- GLC [7]: 190.2 mg/dL
- K [7]: 4.4 meq/L
- Na [7]: 140.3 meq/L
- PL [7]: 148.2 mg/dL
- RALB [7]: 4 g/dL
- TBIL [7]: 0.3 mg/dL
- TC [7]: 66.4 mg/dL
- TG [7]: 154.8 mg/dL
- TP [7]: 6.1 g/dL
- gamma-GTP [7]: 0.8 IU/L
- ALP [8]: 483.4 IU/L
- ALT [8]: 30.6 IU/L
- AST [8]: 60.4 IU/L
- BUN [8]: 19.8 mg/dL
- CRE [8]: 0.6 mg/dL
- DBIL [8]: 0.016 mg/dL
- GLC [8]: 201.4 mg/dL
- K [8]: 4.3 meq/L
- Na [8]: 140.7 meq/L
- PL [8]: 135.6 mg/dL
- RALB [8]: 4 g/dL
- TBIL [8]: 0.3 mg/dL
- TC [8]: 63.6 mg/dL
- TG [8]: 134.2 mg/dL
- TP [8]: 6.5 g/dL
- gamma-GTP [8]: 1 IU/L

From ChEMBL document CHEMBL3885861, “Open TG-GATES”
